{"source": "patent US8778871B2", "about": "(Takeda Pharmaceutical Company Limited, priority 2004, dated 2014)", "key": {"hOT7T175 [1]": {"biological_target": "T1, hOT7T175 (Homo sapiens, UniProt Q969F8, L364H)", "T1 construct": "expressed in transfected cells", "T1 sequence (Q969F8 whole entry L364H)": "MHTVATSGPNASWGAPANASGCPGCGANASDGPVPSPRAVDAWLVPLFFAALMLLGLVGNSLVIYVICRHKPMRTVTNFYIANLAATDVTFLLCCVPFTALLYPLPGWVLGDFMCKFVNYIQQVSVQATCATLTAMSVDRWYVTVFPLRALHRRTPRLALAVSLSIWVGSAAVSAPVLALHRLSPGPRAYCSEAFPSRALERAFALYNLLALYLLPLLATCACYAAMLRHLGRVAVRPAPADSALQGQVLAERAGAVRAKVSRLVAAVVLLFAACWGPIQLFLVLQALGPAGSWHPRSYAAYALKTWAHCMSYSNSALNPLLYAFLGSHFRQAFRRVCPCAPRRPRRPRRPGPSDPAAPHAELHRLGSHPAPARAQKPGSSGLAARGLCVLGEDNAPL", "assay": "Intracellular Ca ion level-increasing activity using FLIPR (180 seconds; specific activity to Metastin (1-54))", "format": "cell-based", "settings": "hOT7T175/CHO, relative to Metastin (1-54) = 1"}, "hOT7T175 [2]": {"biological_target": "T1, hOT7T175", "format": "cell-based", "settings": "hOT7T175/CHO, FLIPR, evaluation for 40 seconds after initiation of the reaction", "description": "The intracellular Ca ion level-increasing activity was measured using FLIPR as in TEST EXAMPLE 2."}}, "note": "Non-standard residues stand in square brackets, D forms with d. Residues, ends and D or L forms follow the SMILES beside them. *: point of attachment. Propanoyl(3-indol-3-yl) = O=C(CCc1c[nH]c2ccccc12)*; 2Nal = N[C@@H](Cc1ccc2ccccc2c1)C(=O)O; Arg(Me) = CNC(=N)NCCC[C@H](N)C(=O)O; Cha = N[C@@H](CC1CCCCC1)C(=O)O; X4 = NC(=S)[C@H](Cc1ccccc1)N*; Abu = CC[C@H](N)C(=O)O; azaGly = NNC(=O)O"}
{"smiles": "CC(C)C[C@H](NC(=O)CNC(=O)[C@H](Cc1ccccc1)NC(=O)[C@H](CO)NC(=O)[C@H](CC(N)=O)NC(=O)CCc1c[nH]c2ccccc12)C(=O)N[C@@H](CCCNC(=N)N)C(=O)N[C@@H](Cc1ccccc1)C(N)=O", "note": "[Compound No. 114, 3-(3-Indolyl)propionyl-Asn-Ser-Phe-Gly-Leu-Arg-Phe-NH2] ({Propanoyl(3-indol-3-yl)}-NSFGLRF-NH2)", "values": [{"measurement": "Specific Act. (intracellular Ca ion level-increasing activity, specific activity to Metastin (1-54))", "setting": "hOT7T175 [1]", "value": 3}, {"measurement": "Specific Act. (EC50/MS10 EC50)", "setting": "hOT7T175 [2]", "value": 4.1}]}
{"smiles": "CC(C)C[C@H](NC(=O)CNC(=O)[C@H](Cc1ccccc1)NC(=O)[C@H](CO)NC(=O)[C@H](CC(N)=O)NC(=O)[C@H](Cc1c[nH]c2ccccc12)NC(=O)[C@H](CC(N)=O)NC(=O)[C@@H](N)Cc1ccc(O)cc1)C(=O)N[C@@H](CCCNC(=N)N)C(=O)N[C@@H](Cc1ccccc1)C(N)=S", "note": "[Compound No. 128] (H-YNWNSFGLR-X4)", "values": [{"measurement": "Specific Act. (intracellular Ca ion level-increasing activity, specific activity to Metastin (1-54))", "setting": "hOT7T175 [1]", "value": 10}, {"measurement": "Specific Act. (EC50/MS10 EC50)", "setting": "hOT7T175 [2]", "value": 0.5}]}
{"smiles": "CC(C)C[C@H](NC(=O)CNC(=O)[C@H](Cc1ccccc1)NC(=O)[C@H](CO)NC(=O)[C@H](CC(N)=O)NC(=O)[C@H](Cc1c[nH]c2ccccc12)NC(=O)[C@H](CC(N)=O)NC(=O)[C@H](N)Cc1ccc(O)cc1)C(=O)N[C@@H](CCCNC(=N)N)C(=O)N[C@@H](Cc1ccccc1)C(N)=S", "note": "[Compound No. 146] (H-[dY]NWNSFGLR-X4)", "values": [{"measurement": "Specific Act. (intracellular Ca ion level-increasing activity, specific activity to Metastin (1-54))", "setting": "hOT7T175 [1]", "value": 10}, {"measurement": "Specific Act. (EC50/MS10 EC50)", "setting": "hOT7T175 [2]", "value": 1.5}]}
{"smiles": "CC(C)C[C@H](NC(=O)CNC(=O)[C@H](Cc1ccc2ccccc2c1)NC(=O)[C@H](CO)NC(=O)[C@H](CC(N)=O)NC(=O)[C@H](Cc1c[nH]c2ccccc12)NC(=O)[C@H](CC(N)=O)NC(=O)[C@@H](N)Cc1ccc(O)cc1)C(=O)N[C@@H](CCCNC(=N)N)C(=O)N[C@@H](Cc1ccccc1)C(N)=O", "note": "[Compound No. 152, Tyr-Asn-Trp-Asn-Ser-Nal(2)-Gly-Leu-Arg-Phe-NH2] (H-YNWNS[2Nal]GLRF-NH2)", "values": [{"measurement": "Specific Act. (intracellular Ca ion level-increasing activity, specific activity to Metastin (1-54))", "setting": "hOT7T175 [1]", "value": 5}, {"measurement": "Specific Act. (EC50/MS10 EC50)", "setting": "hOT7T175 [2]", "value": 1.4}]}
{"smiles": "CC(C)C[C@H](NC(=O)CNC(=O)[C@H](CC1CCCCC1)NC(=O)[C@H](CO)NC(=O)[C@H](CC(N)=O)NC(=O)[C@H](Cc1c[nH]c2ccccc12)NC(=O)[C@H](CC(N)=O)NC(=O)[C@@H](N)Cc1ccc(O)cc1)C(=O)N[C@@H](CCCNC(=N)N)C(=O)N[C@@H](Cc1ccccc1)C(N)=O", "note": "[Compound No. 156, Tyr-Asn-Trp-Asn-Ser-Cha-Gly-Leu-Arg-Phe-NH2] (H-YNWNS[Cha]GLRF-NH2)", "values": [{"measurement": "Specific Act. (intracellular Ca ion level-increasing activity, specific activity to Metastin (1-54))", "setting": "hOT7T175 [1]", "value": 2}, {"measurement": "Specific Act. (EC50/MS10 EC50)", "setting": "hOT7T175 [2]", "value": 0.9}]}
{"smiles": "CNC(=N)NCCC[C@H](NC(=O)[C@H](CC(C)C)NC(=O)CNC(=O)[C@H](Cc1ccccc1)NC(=O)[C@H](CO)NC(=O)[C@H](CC(N)=O)NC(=O)[C@H](Cc1c[nH]c2ccccc12)NC(=O)[C@H](CC(N)=O)NC(=O)[C@H](N)Cc1ccc(O)cc1)C(=O)N[C@@H](Cc1c[nH]c2ccccc12)C(N)=O", "note": "[Compound No. 174] (H-[dY]NWNSFGL[Arg(Me)]W-NH2)", "values": [{"measurement": "Specific Act. (intracellular Ca ion level-increasing activity, specific activity to Metastin (1-54))", "setting": "hOT7T175 [1]", "value": 10}, {"measurement": "Specific Act. (EC50/MS10 EC50)", "setting": "hOT7T175 [2]", "value": 2.3}]}
{"smiles": "CC[C@H](NC(=O)CNC(=O)[C@H](Cc1ccccc1)NC(=O)[C@H](CO)NC(=O)[C@H](CC(N)=O)NC(=O)[C@H](Cc1c[nH]c2ccccc12)NC(=O)[C@H](CC(N)=O)NC(=O)[C@@H](N)Cc1ccc(O)cc1)C(=O)N[C@@H](CCCNC(=N)N)C(=O)N[C@@H](Cc1ccccc1)C(N)=O", "note": "[Compound No. 187, Tyr-Asn-Trp-Asn-Ser-Phe-Gly-Abu-Arg-Phe-NH2] (H-YNWNSFG[Abu]RF-NH2)", "values": [{"measurement": "Specific Act. (intracellular Ca ion level-increasing activity, specific activity to Metastin (1-54))", "setting": "hOT7T175 [1]", "value": 1}, {"measurement": "Specific Act. (EC50/MS10 EC50)", "setting": "hOT7T175 [2]", "value": 1.9}]}
{"smiles": "CC[C@H](C)[C@H](NC(=O)[C@H](CC(N)=O)NC(=O)[C@H](N)Cc1ccc(O)cc1)C(=O)N[C@@H](CC(N)=O)C(=O)N[C@@H](CO)C(=O)N[C@@H](Cc1ccccc1)C(=O)NCC(=O)N[C@@H](CC(C)C)C(=O)N[C@@H](CCCNC(=N)NC)C(=O)N[C@@H](Cc1ccccc1)C(N)=O", "note": "[Compound No. 206] (H-[dY]NINSFGL[Arg(Me)]F-NH2)", "values": [{"measurement": "Specific Act. (intracellular Ca ion level-increasing activity, specific activity to Metastin (1-54))", "setting": "hOT7T175 [1]", "value": 10}, {"measurement": "Specific Act. (EC50/MS10 EC50)", "setting": "hOT7T175 [2]", "value": 4.8}]}
{"smiles": "CNC(=N)NCCC[C@H](NC(=O)[C@H](CC(C)C)NC(=O)CNC(=O)[C@H](Cc1ccccc1)NC(=O)[C@H](CO)NC(=O)[C@@H](NC(=O)[C@H](Cc1c[nH]c2ccccc12)NC(=O)[C@H](CC(N)=O)NC(=O)[C@H](N)Cc1ccc(O)cc1)[C@@H](C)O)C(=O)N[C@@H](Cc1ccccc1)C(N)=O", "note": "[Compound No. 208] (H-[dY]NWTSFGL[Arg(Me)]F-NH2)", "values": [{"measurement": "Specific Act. (intracellular Ca ion level-increasing activity, specific activity to Metastin (1-54))", "setting": "hOT7T175 [1]", "value": 1}, {"measurement": "Specific Act. (EC50/MS10 EC50)", "setting": "hOT7T175 [2]", "value": 7.3}]}
{"smiles": "CNC(=N)NCCC[C@H](NC(=O)[C@H](CC(C)C)NC(=O)CNC(=O)[C@H](Cc1ccccc1)NC(=O)[C@H](CO)NC(=O)[C@H](C)NC(=O)[C@H](Cc1c[nH]c2ccccc12)NC(=O)[C@H](CC(N)=O)NC(=O)[C@H](N)Cc1ccc(O)cc1)C(=O)N[C@@H](Cc1ccccc1)C(N)=O", "note": "[Compound No. 210] (H-[dY]NWASFGL[Arg(Me)]F-NH2)", "values": [{"measurement": "Specific Act. (intracellular Ca ion level-increasing activity, specific activity to Metastin (1-54))", "setting": "hOT7T175 [1]", "value": 1}, {"measurement": "Specific Act. (EC50/MS10 EC50)", "setting": "hOT7T175 [2]", "value": 9.3}]}
{"smiles": "CNC(=N)NCCC[C@H](NC(=O)[C@H](CC(C)C)NC(=O)CNC(=O)[C@H](Cc1ccccc1)NC(=O)[C@@H](NC(=O)[C@H](CC(N)=O)NC(=O)[C@H](Cc1c[nH]c2ccccc12)NC(=O)[C@H](CC(N)=O)NC(=O)[C@H](N)Cc1ccc(O)cc1)[C@@H](C)O)C(=O)N[C@@H](Cc1ccccc1)C(N)=O", "note": "[Compound No. 211] (H-[dY]NWNTFGL[Arg(Me)]F-NH2)", "values": [{"measurement": "Specific Act. (intracellular Ca ion level-increasing activity, specific activity to Metastin (1-54))", "setting": "hOT7T175 [1]", "value": 10}, {"measurement": "Specific Act. (EC50/MS10 EC50)", "setting": "hOT7T175 [2]", "value": 1.3}]}
{"smiles": "CNC(=N)NCCC[C@H](NC(=O)[C@H](CC(C)C)NC(=O)CNC(=O)[C@H](Cc1ccccc1)NC(=O)[C@H](C)NC(=O)[C@H](CC(N)=O)NC(=O)[C@H](Cc1c[nH]c2ccccc12)NC(=O)[C@H](CC(N)=O)NC(=O)[C@H](N)Cc1ccc(O)cc1)C(=O)N[C@@H](Cc1ccccc1)C(N)=O", "note": "[Compound No. 212] (H-[dY]NWNAFGL[Arg(Me)]F-NH2)", "values": [{"measurement": "Specific Act. (intracellular Ca ion level-increasing activity, specific activity to Metastin (1-54))", "setting": "hOT7T175 [1]", "value": 10}, {"measurement": "Specific Act. (EC50/MS10 EC50)", "setting": "hOT7T175 [2]", "value": 1.1}]}
{"smiles": "CNC(=N)NCCC[C@H](NC(=O)[C@H](CC(C)C)NC(=O)CNC(=O)[C@H](Cc1ccccc1)NC(=O)[C@H](CO)NC(=O)[C@H](CC(N)=O)NC(=O)[C@H](Cc1c[nH]c2ccccc12)NC(=O)[C@H](N)Cc1ccc(O)cc1)C(=O)N[C@@H](Cc1ccccc1)C(N)=O", "note": "[Compound No. 217] (H-[dY]WNSFGL[Arg(Me)]F-NH2)", "values": [{"measurement": "Specific Act. (intracellular Ca ion level-increasing activity, specific activity to Metastin (1-54))", "setting": "hOT7T175 [1]", "value": 20}, {"measurement": "Specific Act. (EC50/MS10 EC50)", "setting": "hOT7T175 [2]", "value": 3.1}]}
{"smiles": "CNC(=N)NCCC[C@H](NC(=O)[C@H](CC(C)C)NC(=O)NNC(=O)[C@H](Cc1ccccc1)NC(=O)[C@H](CO)NC(=O)[C@H](CC(N)=O)NC(=O)[C@H](Cc1c[nH]c2ccccc12)NC(=O)[C@H](N)Cc1ccc(O)cc1)C(=O)N[C@@H](Cc1ccccc1)C(N)=O", "note": "[Compound No. 222, D-Tyr-Trp-Asn-Ser-Phe-AzaGly-Leu-Arg(Me)-Phe-NH2] (H-[dY]WNSF[azaGly]L[Arg(Me)]F-NH2)", "values": [{"measurement": "Specific Act. (intracellular Ca ion level-increasing activity, specific activity to Metastin (1-54))", "setting": "hOT7T175 [1]", "value": 10}, {"measurement": "Specific Act. (EC50/MS10 EC50)", "setting": "hOT7T175 [2]", "value": 2.7}]}
